The supplement of paper PMC11208160

Experiment: recombinant barcode read abundance after kanamycin selection (control-corrected) (log10(CPM+1)); higher = more efficient recombination; sequences stand for … in AGTGCAGAGAAAATCGGCCAGTTTTCTCTGCCTGCAGTCCGCATGCCGT…AGATTTATGCAGCGGACTGCCTTTCTCCCAAAGTGATAAACCGGACAGTATCATGGACCGGTTTTCCCGGTAATCCGTATTTGCAAGGTTGGTTTCACT; site = the 11-nt target
Summary of the method: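 In E. coli, a pooled library matched targets to IS621 bridge RNA target-binding loops and was introduced alongside a donor plasmid. Cells went onto chloramphenicol/ampicillin/kanamycin with 0.1 mM IPTG or onto chloramphenicol/ampicillin LB agar as control, in duplicate. Recombination efficiency, from recombinant-junction barcodes as counts per million, is averaged and control-corrected. It is reported as log10(CPM+1).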
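Further: IS621 recombinase and bridge RNA in Escherichia coli cells.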

Sequence	recombinant barcode read abundance (log10)
CCTAGAGCTTGGGTTCTAACCTGTTGCCT (site CCTAGAGCTAG)	0.694
CCTAGAGCTTGGGTTCTAACCTGTTGCCT (site CCTAGATCTAG)	0.0587
CCTAGATCTTGGGTTCTAACCTGTTGCCT (site CCTAGAACTAG)	0.107
CCTAGATCTTGGGTTCTAACCTGTTGCCT (site CCTAGACCTAG)	0.141
CCTAGATCTTGGGTTCTAACCTGTTGCCT (site CCTAGAGCTAG)	0.0181
CCTAGATCTTGGGTTCTAACCTGTTGCCT (site CCTAGATCTAG)	0.372
CCTATGTCTTGGGTTCTAACCTGTTGCTA (site ACTATGTCTTG)	0.0985
CCTATGTCTTGGGTTCTAACCTGTTGCTA (site CCTATGTCTTA)	0.528
CCTCCCTCTTGGGTTCTAACCTGTTGCTA (site CCTCCCTCTCA)	0.481
CCTCCCTCTTGGGTTCTAACCTGTTGCTA (site CCTCCCTCTTA)	1.84
CCTGACACTTGGGTTCTAACCTGTTGCGG (site CCTGACACTCC)	1.66
CCTGACACTTGGGTTCTAACCTGTTGCGG (site CCTTACACTCC)	0.232
CCTGGGACTTGGGTTCTAACCTGTTGCGC (site CCTGGGACTAC)	0.684
CCTGGGACTTGGGTTCTAACCTGTTGCGC (site CCTGGGACTCC)	0.347
CCTGGGACTTGGGTTCTAACCTGTTGCGC (site CCTGGGACTGC)	1.24
CCTGGGACTTGGGTTCTAACCTGTTGCGC (site CCTGGGACTTC)	0.214
CCTGGGACTTGGGTTCTAACCTGTTGCGG (site CCTGGGACTAC)	0
CCTGGGACTTGGGTTCTAACCTGTTGCGG (site CCTGGGACTCC)	2.29

Sequence	recombinant barcode read abundance (log10)
CCTGGGACTTGGGTTCTAACCTGTTGCGG (site CCTGGGACTGC)	0.532
CCTGGGACTTGGGTTCTAACCTGTTGCGG (site CCTGGGACTTC)	0.474
CCTGGGACTTGGGTTCTAACCTGTTGCGT (site CCTGGGACTAC)	1.31
CCTGGGACTTGGGTTCTAACCTGTTGCGT (site CCTGGGACTCC)	0.807
CCTGGGACTTGGGTTCTAACCTGTTGCGT (site CCTGGGACTGC)	0.178
CCTGGGACTTGGGTTCTAACCTGTTGCGT (site CCTGGGACTTC)	0.0691
CCTGTAGCTTGGGTTCTAACCTGTTGCCT (site CCGGTAACTAG)	0.0829
CCTGTAGCTTGGGTTCTAACCTGTTGCCT (site CCTGTAGCTAG)	1.13
CCTTAGCCTTGGGTTCTAACCTGTTGCCT (site CCTTACCCTAG)	0.0511
CCTTAGCCTTGGGTTCTAACCTGTTGCCT (site CCTTAGCCTAG)	0.385
CCTTCTACTTGGGTTCTAACCTGTTGCTA (site CCTTCTACTAG)	0.0484
CCTTCTACTTGGGTTCTAACCTGTTGCTA (site CCTTCTACTTA)	0.392
CCTTGCTCTTGGGTTCTAACCTGTTGCCT (site CCTTGCTCTAG)	0.317
CCTTGCTCTTGGGTTCTAACCTGTTGCCT (site CCTTGGACTAG)	0.114
CCTTGGACTTGGGTTCTAACCTGTTGCAA (site CCTTGGACTTT)	0.546
CCTTGGACTTGGGTTCTAACCTGTTGCAA (site GCTTGGACTCT)	0.0226
CCTTGGTCTTGGGTTCTAACCTGTTGCCT (site CCTTGGTCTAG)	0.216
CCTTGGTCTTGGGTTCTAACCTGTTGCCT (site GCTTGGCCTAG)	0.107
